Measured values: US20250101039A1, “RIFAMYCIN DERIVATIVES FOR THE TREATMENT OF DISEASES” (priority 2022, published 2025)
≈ marks a conversion by molar mass, not a printed value.

What was measured:
[1] = test system: M. smegmatis (strain ATCC 700084); assay: MIC, M. smegmatis (BacTiter-Glo); assay type: cell-based, Mycobacterium smegmatis; settings: strain ATCC 700084, Middlebrook 7H9 + ADC, 90% growth inhibition, 20 hours
A. baumannii = assay: MIC by broth microdilution, A. baumannii (WT); assay type: cell-based, Acinetobacter baumannii; settings: for MIC A. baumannii: RPMI medium supplemented with 10% FCS, 35° C. 20 hours; for A. baumannii MIC, WT: Table 4, RPMI + FCS
A. baumannii RpoB H535Q = assay: microbe, parasite or virus in culture; assay type: cell-based, Acinetobacter baumannii; settings: Table 4, RPMI + FCS
[2] = test system: S. pneumoniae (strain ATCC 49619); assay: MIC by broth microdilution, S. pneumoniae; assay type: cell-based, Streptococcus pneumoniae; settings: strain ATCC 49619, cation adjusted Mueller Hinton broth + 5% laked horse blood
[3] = test system: S. pyogenes (strain IHMA 1117021); assay: MIC by broth microdilution, S. pyogenes; assay type: cell-based, Streptococcus pyogenes; settings: strain IHMA 1117021, cation adjusted Mueller Hinton broth + 5% laked horse blood
A. baumannii RpoB H535L = assay: microbe, parasite or virus in culture; assay type: cell-based, Acinetobacter baumannii; settings: Table 4, RPMI + FCS
[4] = test system: Enterococcus faecalis (strain ATCC 51575); assay: MIC by broth microdilution, E. faecalis; assay type: cell-based; settings: strain ATCC 51575, cation adjusted Mueller Hinton broth
A. baumannii RpoB H535C = assay: microbe, parasite or virus in culture; assay type: cell-based, Acinetobacter baumannii; settings: Table 4, RPMI + FCS
[5] = test system: H. influenzae (strain ATCC 49247); assay: MIC by broth microdilution, H. influenzae; assay type: cell-based, Hemophilus influenzae; settings: strain ATCC 49247, Hemophilus test medium broth
[6] = test system: Staphylococcus epidermidis (strain ATCC 12228); assay: MIC by broth microdilution, S. epidermidis; assay type: cell-based; settings: strain ATCC 12228, cation adjusted Mueller Hinton broth
[7] = test system: M. abscessus (strain ATCC 19977); assay: MIC by broth microdilution, M. abscessus; assay type: cell-based, Mycobacterium abscessus; settings: strain ATCC 19977, Middlebrook 7H9 broth + ADC
S. aureus = assay: MIC by broth microdilution, S. aureus; assay type: cell-based, Staphylococcus aureus; settings: cation adjusted Mueller Hinton broth, 35° C. 20 hours
[8] = test system: Enterococcus faecium (strain NCTC 12204); assay: MIC by broth microdilution, E. faecium; assay type: cell-based; settings: strain NCTC 12204, cation adjusted Mueller Hinton broth
[9] = test system: M. tuberculosis (H37Rv strain ATCC 27294); assay type: cell-based, Mycobacterium tuberculosis

Row | SMILES | MIC M. smegmatis [1] | MIC A. baumannii (A. baumannii) | A. baumannii MIC, WT (A. baumannii) | A. baumannii MIC, RpoB H535Q (A. baumannii RpoB H535Q) | MIC S. pneumoniae [2] | MIC S. pyogenes [3] | A. baumannii MIC, RpoB H535L (A. baumannii RpoB H535L) | MIC E. faecalis [4] | A. baumannii MIC, RpoB H535C (A. baumannii RpoB H535C) | MIC H. influenzae [5] | MIC S. epidermidis [6] | MIC M. abscessus [7] | MIC S. aureus (S. aureus) | MIC E. faecium [8] | MIC M. tuberculosis [9]
1 | COC1C=COC2(C)Oc3c(C)c(O)c4c(c3C2=O)C2=NC3(NC2=C(NC(=O)C(C)=CC=CC(C)C(O)C(C)C(O)C(C)C(OC(C)=O)C1C)C4=O)C1CCCC3CNC1 (mixture of isomers) [16 (A + B)] | 0.33 µg/mL | < 0.002 µg/mL | ≤0.002 µg/mL | 0.008 µg/mL | < 0.002 µg/mL | < 0.002 µg/mL | 1 µg/mL | 0.5 µg/mL | 0.016 µg/mL | 0.06 µg/mL | < 0.002 µg/mL | 4 µg/mL | 0.004 µg/mL | 0.125 µg/mL | –
2 | COC1C=COC2(C)Oc3c(C)c(O)c4c(c3C2=O)C2=NC3(CCC5CCC(C3)N5C)NC2=C(NC(=O)C(C)=CC=CC(C)C(O)C(C)C(O)C(C)C(OC(C)=O)C1C)C4=O (mixture of isomers) [8 (A + B + C + D)] | 1.19 µg/mL | 0.008 µg/mL | 0.008 µg/mL | 0.06 µg/mL | < 0.002 µg/mL | 0.016 µg/mL | 1 µg/mL | 2 µg/mL | 0.125 µg/mL | 0.125 µg/mL | < 0.002 µg/mL | 32 µg/mL | 0.03 µg/mL | 0.125 µg/mL | 0.01 µg/mL
3 | CO[C@H]1/C=C/O[C@@]2(C)Oc3c(C)c(O)c4c(c3C2=O)C2=NC3(CCCN(C)CC3)NC2=C(NC(=O)/C(C)=C\C=C\[C@H](C)[C@H](O)[C@@H](C)[C@@H](O)[C@@H](C)[C@H](OC(C)=O)[C@@H]1C)C4=O (single isomer, unassigned) [Compound 7B] | – | 0.125 µg/mL (≈ 0.153 µM) | – | – | – | – | – | – | – | – | – | – | 0.008 µg/mL (≈ 0.00977 µM) | – | –
4 | COC1C=COC2(C)Oc3c(C)c(O)c4c(c3C2=O)C2=NC3(NC2=C(NC(=O)C(C)=CC=CC(C)C(O)C(C)C(O)C(C)C(OC(C)=O)C1C)C4=O)C1CCC3CN(C(C)(C)C)C1 (mixture of isomers) [2 (A + B)] | – | 2 µg/mL | – | – | – | – | – | – | – | – | – | – | 0.008 µg/mL | – | –
5 | CO[C@H]1/C=C/O[C@@]2(C)Oc3c(C)c(O)c4c(c3C2=O)C2=NC3(NC2=C(NC(=O)/C(C)=C\C=C\[C@H](C)[C@H](O)[C@@H](C)[C@@H](O)[C@@H](C)[C@H](OC(C)=O)[C@@H]1C)C4=O)C1CNCC3CNC1 (some centres unmarked) [Compound 17] | – | 0.5 µg/mL (≈ 0.601 µM) | – | – | – | – | – | – | – | – | – | – | 0.008 µg/mL (≈ 0.00962 µM) | – | –
6 | CCCN1CC2CN(CCC)CC(C1)C21N=C2C(=C3NC(=O)/C(C)=C\C=C\[C@H](C)[C@H](O)[C@@H](C)[C@@H](O)[C@@H](C)[C@H](OC(C)=O)[C@H](C)[C@@H](OC)/C=C/O[C@@]4(C)Oc5c(C)c(O)c(c2c5C4=O)C3=O)N1 (some centres unmarked) [Compound 4] | – | 0.03 µg/mL (≈ 0.0327 µM) | – | – | – | – | – | – | – | – | – | – | 0.016 µg/mL (≈ 0.0175 µM) | – | –
7 | CO[C@H]1/C=C/O[C@@]2(C)Oc3c(C)c(O)c4c(c3C2=O)C2=NC3(CCCNCC3)NC2=C(NC(=O)/C(C)=C\C=C\[C@H](C)[C@H](O)[C@@H](C)[C@@H](O)[C@@H](C)[C@H](OC(C)=O)[C@@H]1C)C4=O (single isomer, unassigned) [Compound 6B] | – | 125 µg/mL (≈ 155 µM) | – | – | – | – | – | – | – | – | – | – | 16 µg/mL (≈ 19.9 µM) | – | –
8 | CCCN1C2CCC1CC1(C2)N=C2C(=C3NC(=O)/C(C)=C\C=C\[C@H](C)[C@H](O)[C@@H](C)[C@@H](O)[C@@H](C)[C@H](OC(C)=O)[C@H](C)[C@@H](OC)/C=C/O[C@@]4(C)Oc5c(C)c(O)c(c2c5C4=O)C3=O)N1 (single isomer, unassigned) [Compound 20B] | 0.29 µg/mL | < 0.002 µg/mL | ≤0.002 µg/mL | 0.004 µg/mL | < 0.002 µg/mL | < 0.002 µg/mL | 0.5 µg/mL | 1 µg/mL (≈ 1.16 µM) | 0.008 µg/mL | 0.25 µg/mL (≈ 0.291 µM) | < 0.002 µg/mL | 8 µg/mL | 0.004 µg/mL (≈ 0.00466 µM) | 0.5 µg/mL (≈ 0.582 µM) | 0.01 µg/mL (≈ 0.0116 µM)
9 | CO[C@H]1/C=C/O[C@@]2(C)Oc3c(C)c(O)c4c(c3C2=O)C2=NC3(CCCN(C)CC3)NC2=C(NC(=O)/C(C)=C\C=C\[C@H](C)[C@H](O)[C@@H](C)[C@@H](O)[C@@H](C)[C@H](OC(C)=O)[C@@H]1C)C4=O (single isomer, unassigned) [Compound 7A] | 0.54 µg/mL | 0.004 µg/mL (≈ 0.00488 µM) | 0.004 µg/mL | 0.016 µg/mL | < 0.002 µg/mL | < 0.002 µg/mL | 1 µg/mL | 0.5 µg/mL (≈ 0.611 µM) | 0.03 µg/mL | 0.06 µg/mL (≈ 0.0733 µM) | < 0.002 µg/mL | 16 µg/mL | 0.008 µg/mL (≈ 0.00977 µM) | 0.06 µg/mL (≈ 0.0733 µM) | 0.01 µg/mL (≈ 0.0122 µM)
10 | CCCN1C2CCC1CC1(C2)N=C2C(=C3NC(=O)/C(C)=C\C=C\[C@H](C)[C@H](O)[C@@H](C)[C@@H](O)[C@@H](C)[C@H](OC(C)=O)[C@H](C)[C@@H](OC)/C=C/O[C@@]4(C)Oc5c(C)c(O)c(c2c5C4=O)C3=O)N1 (single isomer, unassigned) [Compound 20A] | – | 0.25 µg/mL (≈ 0.291 µM) | – | – | – | – | – | – | – | – | – | – | 0.008 µg/mL (≈ 0.00931 µM) | – | –
